In the supplement of paper PMC10307832:

How the values were obtained:
Assay in all cases: relative viability (nuclei count vs DMSO), 5 days (fraction); higher = more cells survive
HARA = test system: HARA
In short: (§1)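 Lung cancer cell lines in 1536-well plates were dosed by pin tool the day after seeding, either with one drug alone or with a fixed anchor-drug dose plus five library-drug doses (not always all listed) in √10 steps. After 5 days, cells were fixed and their nuclei stained in one step (final 0.05% Triton X-100, 1% formaldehyde, 1 ug/ml Hoechst), then counted on 4× images. Relative viability is the nuclei count in treated wells divided by that in vehicle wells. Values are medians of duplicate plates.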

NCI-H838 = test system: NCI-H838
In short: as §1

EKVX = test system: EKVX
In short: as §1

NCI-H2170 = test system: NCI-H2170
In short: as §1

CAL-12T = test system: CAL-12T
In short: as §1

NCI-H2009 = test system: NCI-H2009
In short: as §1

NCI-H661 = test system: NCI-H661
In short: as §1

NCI-H1437 = test system: NCI-H1437
In short: as §1

ABC-1 = test system: ABC-1
In short: as §1

BEN = test system: BEN
In short: as §1

NCI-H2023 = test system: NCI-H2023
In short: as §1

PC-14 = test system: PC-14
In short: as §1

COR-L23 = test system: COR-L23
In short: as §1

NCI-H3122 = test system: NCI-H3122
In short: as §1

201T = test system: 201T
In short: as §1

COR-L 105 = test system: COR-L 105
In short: as §1

NCI-H1650 = test system: NCI-H1650
In short: as §1

NCI-H1666 = test system: NCI-H1666
In short: as §1

LU99A = test system: LU99A
In short: as §1

LK-2 = test system: LK-2
In short: as §1

NCI-H727 = test system: NCI-H727
In short: as §1

HCC-366 = test system: HCC-366
In short: as §1

NCI-H441 = test system: NCI-H441
In short: as §1

## Clc1ccc(Nc2nnc(Cc3ccncc3)c3ccccc23)cc1 [Vatalanib] + C[C@@H](Oc1cc(-c2cnn(C3CCNCC3)c2)cnc1N)c1c(Cl)ccc(F)c1Cl [Crizotinib] (partner 1 µM)
HARA; first compound 0.04 µM
  relative viability: 0.99
HARA; first compound 0.1265 µM
  relative viability: 0.956
HARA; first compound 0.4 µM
  relative viability: 1.01
HARA; first compound 1.265 µM
  relative viability: 1.07
HARA; first compound 4 µM
  relative viability: 0.998
NCI-H838; first compound 0.04 µM
  relative viability: 0.837
NCI-H838; first compound 0.1265 µM
  relative viability: 0.867
NCI-H838; first compound 0.4 µM
  relative viability: 1.01
NCI-H838; first compound 1.265 µM
  relative viability: 0.73
NCI-H838; first compound 4 µM
  relative viability: 0.79
EKVX; first compound 0.04 µM
  relative viability: 0.993
EKVX; first compound 0.1265 µM
  relative viability: 0.9
EKVX; first compound 0.4 µM
  relative viability: 1.11
EKVX; first compound 1.265 µM
  relative viability: 1.02
EKVX; first compound 4 µM
  relative viability: 0.921
NCI-H2170; first compound 0.04 µM
  relative viability: 1.22
NCI-H2170; first compound 0.1265 µM
  relative viability: 1.21
NCI-H2170; first compound 0.4 µM
  relative viability: 1.18
NCI-H2170; first compound 1.265 µM
  relative viability: 1.06
NCI-H2170; first compound 4 µM
  relative viability: 1.04
CAL-12T; first compound 0.04 µM
  relative viability: 0.651
CAL-12T; first compound 0.1265 µM
  relative viability: 0.523
CAL-12T; first compound 0.4 µM
  relative viability: 0.686
CAL-12T; first compound 1.265 µM
  relative viability: 0.446
CAL-12T; first compound 4 µM
  relative viability: 0.746
NCI-H2009; first compound 0.04 µM
  relative viability: 0.987
NCI-H2009; first compound 0.1265 µM
  relative viability: 0.478
NCI-H2009; first compound 0.4 µM
  relative viability: 1.12
NCI-H2009; first compound 1.265 µM
  relative viability: 1
NCI-H2009; first compound 4 µM
  relative viability: 0.977
NCI-H661; first compound 0.04 µM
  relative viability: 1.03
NCI-H661; first compound 0.4 µM
  relative viability: 0.986
NCI-H661; first compound 1.265 µM
  relative viability: 0.885
NCI-H661; first compound 4 µM
  relative viability: 0.872
NCI-H1437; first compound 0.04 µM
  relative viability: 0.978
NCI-H1437; first compound 0.1265 µM
  relative viability: 0.934
NCI-H1437; first compound 0.4 µM
  relative viability: 1.02
NCI-H1437; first compound 1.265 µM
  relative viability: 0.886
NCI-H1437; first compound 4 µM
  relative viability: 0.958
ABC-1; first compound 0.04 µM
  relative viability: 1.01
ABC-1; first compound 0.1265 µM
  relative viability: 1
ABC-1; first compound 0.4 µM
  relative viability: 1.37
ABC-1; first compound 1.265 µM
  relative viability: 0.89
ABC-1; first compound 4 µM
  relative viability: 1.13
BEN; first compound 0.04 µM
  relative viability: 1.03
BEN; first compound 0.1265 µM
  relative viability: 0.764
BEN; first compound 0.4 µM
  relative viability: 1.01
BEN; first compound 1.265 µM
  relative viability: 0.858
BEN; first compound 4 µM
  relative viability: 1.01
NCI-H2023; first compound 0.04 µM
  relative viability: 0.571
NCI-H2023; first compound 0.1265 µM
  relative viability: 0.667
NCI-H2023; first compound 0.4 µM
  relative viability: 0.698
NCI-H2023; first compound 1.265 µM
  relative viability: 0.605
NCI-H2023; first compound 4 µM
  relative viability: 0.559
PC-14; first compound 0.04 µM
  relative viability: 0.976
PC-14; first compound 0.1265 µM
  relative viability: 0.916
PC-14; first compound 0.4 µM
  relative viability: 0.956
PC-14; first compound 1.265 µM
  relative viability: 0.825
PC-14; first compound 4 µM
  relative viability: 0.865
COR-L23; first compound 0.04 µM
  relative viability: 0.7
COR-L23; first compound 0.1265 µM
  relative viability: 0.558
COR-L23; first compound 0.4 µM
  relative viability: 0.668
COR-L23; first compound 1.265 µM
  relative viability: 0.683
COR-L23; first compound 4 µM
  relative viability: 0.632
NCI-H3122; first compound 0.04 µM
  relative viability: 0.25
NCI-H3122; first compound 0.1265 µM
  relative viability: 0.274
NCI-H3122; first compound 0.4 µM
  relative viability: 0.269
NCI-H3122; first compound 1.265 µM
  relative viability: 0.249
NCI-H3122; first compound 4 µM
  relative viability: 0.288
201T; first compound 0.04 µM
  relative viability: 1
201T; first compound 0.1265 µM
  relative viability: 1.07
201T; first compound 0.4 µM
  relative viability: 1.03
201T; first compound 1.265 µM
  relative viability: 0.991
201T; first compound 4 µM
  relative viability: 1.07
COR-L 105; first compound 0.04 µM
  relative viability: 0.818
COR-L 105; first compound 0.1265 µM
  relative viability: 0.677
COR-L 105; first compound 0.4 µM
  relative viability: 0.938
COR-L 105; first compound 1.265 µM
  relative viability: 0.73
COR-L 105; first compound 4 µM
  relative viability: 0.827
NCI-H1650; first compound 0.04 µM
  relative viability: 0.933
NCI-H1650; first compound 0.1265 µM
  relative viability: 0.997
NCI-H1650; first compound 0.4 µM
  relative viability: 1.06
NCI-H1650; first compound 1.265 µM
  relative viability: 0.92
NCI-H1650; first compound 4 µM
  relative viability: 1.05
NCI-H1666; first compound 0.04 µM
  relative viability: 0.968
NCI-H1666; first compound 0.1265 µM
  relative viability: 0.985
NCI-H1666; first compound 0.4 µM
  relative viability: 1.06
NCI-H1666; first compound 1.265 µM
  relative viability: 0.889
NCI-H1666; first compound 4 µM
  relative viability: 0.742
LU99A; first compound 0.04 µM
  relative viability: 0.597
LU99A; first compound 0.1265 µM
  relative viability: 0.524
LU99A; first compound 0.4 µM
  relative viability: 0.63
LU99A; first compound 1.265 µM
  relative viability: 0.528
LU99A; first compound 4 µM
  relative viability: 0.513
LK-2; first compound 0.04 µM
  relative viability: 0.243
LK-2; first compound 0.1265 µM
  relative viability: 0.232
LK-2; first compound 1.265 µM
  relative viability: 0.252
LK-2; first compound 4 µM
  relative viability: 0.233
NCI-H727; first compound 0.04 µM
  relative viability: 0.689
NCI-H727; first compound 0.1265 µM
  relative viability: 0.603
NCI-H727; first compound 0.4 µM
  relative viability: 0.992
NCI-H727; first compound 1.265 µM
  relative viability: 0.693
NCI-H727; first compound 4 µM
  relative viability: 0.654
HCC-366; first compound 0.04 µM
  relative viability: 0.545
HCC-366; first compound 0.1265 µM
  relative viability: 0.383
HCC-366; first compound 0.4 µM
  relative viability: 0.592
HCC-366; first compound 1.265 µM
  relative viability: 0.487
HCC-366; first compound 4 µM
  relative viability: 0.35
NCI-H441; first compound 0.04 µM
  relative viability: 0.851
NCI-H441; first compound 0.1265 µM
  relative viability: 0.605
NCI-H441; first compound 0.4 µM
  relative viability: 0.72
NCI-H441; first compound 1.265 µM
  relative viability: 0.835
NCI-H441; first compound 4 µM
  relative viability: 0.831
